The values below come from ChEMBL document CHEMBL1201862, “PubChem BioAssay data set” (2004).

What all share (experiment): NCI-60 cell line screen, 48 h
The test system of assay [1] is 786-0.
For assay [2], the system named is ACHN.
Assay [3] deals with CCRF-CEM.
The subject of assay [4] is DU-145.
For assay [5], the system named is HCC 2998.
Assay [6] relates to HOP-92.
For assay [7], the system named is KM12.
Assay [8] concerns LOX IMVI.
Assay [9] has as its system MDA-N.
Assay [10] deals with NCI/ADR-RES.
Assay [11] has as its system OVCAR-4.
Assay [12] concerns OVCAR-5.
The subject of assay [13] is RXF 393.
Assay [14] concerns SF-295.
Assay [15] relates to SF-539.
The test system of assay [16] is SK-MEL-2.
In assay [17] the test system is SNB-19.
Assay [18] has as its system SNB-75.
Assay [19] deals with SW-620.
For assay [20], the system named is UACC-257.

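Each compound was tested at five concentrations against cells in 96-well plates for 48 hours. GI50: concentration for 50% inhibition of growth.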 Active and inactive are the calls of the source. Cut-off read from the data, not from the text of the source: active = GI50 up to about 1.1 µM and inactive = higher.

As to `COc1cc2c(cc1O)C1Cc3ccc(OC)c(O)c3C[N+]1(C)CC2` (stereo not drawn), the GI50 was > 100 µM (inactive) in assay [1]; > 100 µM (inactive) in assay [2]; 45 µM (inactive) in assay [3]; > 100 µM (inactive) in [4]; > 100 µM (inactive) in [5]; > 100 µM (inactive) in assay [6]. The GI50 in assay [7], in [8], in assay [9], in assay [10], in [11] and in [12] was > 100 µM (inactive) each time. Further, the GI50 in [13], in assay [14], in [15], in assay [16], in assay [17] and in assay [18] was > 100 µM (inactive) throughout. Also, the GI50 in [19] is > 100 µM (inactive).

For `CCOC(C/N=c1/nc(N(C)C)ss1)OCC`, the GI50 in assay [1] is 17.7 µM (inactive); in assay [2] it was 26.2 µM (inactive); in assay [3], 0.208 µM (active); in assay [4] it was > 71.1 µM (inactive); in [5], > 77.4 µM (inactive); in [6] it was 18.4 µM (inactive). For the same molecule, the GI50 in assay [7] was 4.61 µM (inactive); in assay [8], 16.3 µM (inactive); in assay [9], 3.56 µM (inactive); in assay [10] it was > 100 µM (inactive); in [11], 16.6 µM (inactive); in [12] it was 19.5 µM (inactive). In addition, the GI50 in assay [13] was 19 µM (inactive); in [14], 22.2 µM (inactive); in assay [15] it was 17.4 µM (inactive); in assay [16] it was 13.8 µM (inactive); in [17] it was > 67.1 µM (inactive); in assay [18], 27.6 µM (inactive). Also, the GI50 was 2.6 µM (inactive) in assay [19] and 26.4 µM (inactive) in [20].

Consider `Cc1nc2c(sc3nc4ccccc4n32)c(=O)[nH]1`, for which the GI50 in [1], in assay [2], in assay [3], in [4], in assay [5] and in assay [6] was > 100 µM (inactive) in each case. Besides, the GI50 in [7], in assay [8], in assay [9], in assay [10], in assay [11] and in [12] was > 100 µM (inactive) throughout. In addition, the GI50 in assay [13], in assay [14], in assay [15], in assay [16], in [17] and in assay [18] was > 100 µM (inactive) in each case. Further, the GI50 in [19] and in [20] was > 100 µM (inactive) each time.

Regarding `O=C1c2cccc3cc4ccccc4c(c23)C(=O)N1CCCNCCNCCCN1C(=O)c2cccc3cc4ccccc4c(c23)C1=O`, the GI50 in assay [1] was 0.02 µM (active); in [2] it was < 0.0227 µM (active); in assay [3], < 0.01 µM (active); in [4], 0.475 µM (active); in assay [5] it was 0.0964 µM (active); in assay [6], 1 µM (active). Moreover, the GI50 in assay [7] was 0.106 µM (active); in assay [8], < 0.01 µM (active); in [9], 0.0546 µM (active); in assay [10], 0.314 µM (active); in assay [11], 0.129 µM (active); in assay [12], 0.257 µM (active). The GI50 in assay [13] was 0.179 µM (active); in assay [14], 0.0182 µM (active); in assay [15], 0.142 µM (active); in [16], 0.338 µM (active); in assay [17] it was 0.217 µM (active); in assay [18] it was 0.0263 µM (active). Also, the GI50 was < 0.01 µM (active) in assay [19] and 1.02 µM (active) in [20].

In the case of `COC(=O)C1Cc2c(C)cccc2C1=O` (stereo not drawn), the GI50 was > 100 µM (inactive) in assay [1]; > 100 µM (inactive) in [2]; 41.3 µM (inactive) in assay [3]; > 100 µM (inactive) in assay [4]; > 100 µM (inactive) in assay [5]; > 100 µM (inactive) in [6]. In addition, the GI50 was > 100 µM (inactive) in assay [7]; 88.9 µM (inactive) in assay [8]; > 100 µM (inactive) in [9]; > 100 µM (inactive) in assay [10]; > 100 µM (inactive) in [11]; > 100 µM (inactive) in assay [12]. In addition, the GI50 in [13], in assay [14], in [15], in [16], in assay [17] and in assay [18] was > 100 µM (inactive) throughout. Further, the GI50 in assay [19] and in assay [20] was > 100 µM (inactive) throughout.

Consider `N=C(N)NCCCCCCC(=O)NC(O)C(=O)NCCCCNCCCN` (stereo not drawn), for which the GI50 in assay [1] is 3070 µM (inactive); in [2], > 750 µM (inactive); in [3], 515 µM (inactive); in assay [4], > 750 µM (inactive); in [5], > 562 µM (inactive); in assay [6], 360 µM (inactive). Moreover, the GI50 in assay [7] was 577 µM (inactive); in assay [8], 605 µM (inactive); in assay [9] it was 2360 µM (inactive); in assay [10] it was > 750 µM (inactive); in assay [11], 550 µM (inactive); in [12], > 750 µM (inactive). The GI50 in assay [13] is 700 µM (inactive); in [14], 553 µM (inactive); in assay [15] it was > 628 µM (inactive); in [16], 505 µM (inactive); in assay [17], 695 µM (inactive); in assay [18] it was 335 µM (inactive). Also, the GI50 in assay [19] and in [20] was > 750 µM (inactive) throughout.

In the case of `COc1ccc(N2C(=O)CC(c3c[nH]c4ncccc34)C2=O)cc1` (stereo not drawn), the GI50 in assay [1] is 22.3 µM (inactive); in assay [2], 21.2 µM (inactive); in assay [3], 6.4 µM (inactive); in assay [4], > 100 µM (inactive); in [5], > 100 µM (inactive); in [6] it was 19.7 µM (inactive). Moreover, the GI50 in assay [7] was > 100 µM (inactive); in assay [8] it was > 100 µM (inactive); in [9] it was 14.2 µM (inactive); in assay [10] it was > 53 µM (inactive); in [11] it was 22.8 µM (inactive); in assay [12], 63.2 µM (inactive). Further, the GI50 is 23.9 µM (inactive) in assay [13]; > 100 µM (inactive) in assay [14]; > 47.2 µM (inactive) in assay [15]; 36.1 µM (inactive) in assay [16]; > 100 µM (inactive) in assay [17]; > 100 µM (inactive) in assay [18]. Besides, the figures for the GI50 in [19] and in assay [20] were 18.2 µM (inactive) and 19.3 µM (inactive), respectively.

Consider `C[C@@]12[C@H]3CC[C@@H]1[C@H](O)C(=O)N2CC3`, for which the GI50 in assay [1], in [2], in [3], in [4], in [5] and in [6] was > 100 µM (inactive) each time. Further, the GI50 in assay [7], in [8], in assay [9], in [10], in [11] and in assay [12] was > 100 µM (inactive) in each case. Besides, the GI50 in [13], in assay [14], in assay [15], in [16], in [17] and in [18] was > 100 µM (inactive) each time. Further, the GI50 in assay [19] and in assay [20] was > 100 µM (inactive) in each case.

Regarding `O=C1CCCc2cc3c(cc21)CC1(C3)Cc2ccc3c(c2C1)C(=O)CCC3` (stereo not drawn), the GI50 in assay [1] was 30.7 µM (inactive); in assay [2], 5.18 µM (inactive); in assay [3] it was 6.92 µM (inactive); in assay [4], 39.8 µM (inactive); in [5] it was 71.8 µM (inactive); in assay [6], 21.3 µM (inactive). The GI50 was 14 µM (inactive) in assay [7]; 11.7 µM (inactive) in assay [8]; 5.18 µM (inactive) in assay [9]; 6.25 µM (inactive) in [10]; 13.9 µM (inactive) in [11]; > 100 µM (inactive) in assay [12]. Also, the GI50 in [13] was 37.1 µM (inactive); in assay [14], 18.5 µM (inactive); in assay [15] it was 28.3 µM (inactive); in assay [16] it was 24.2 µM (inactive); in assay [17], 67.6 µM (inactive); in assay [18], 15.5 µM (inactive). Moreover, the GI50 in assay [19] is 15.6 µM (inactive); in assay [20] it was 5.24 µM (inactive).

With `Fc1cc2nc3n(c2cc1F)C(c1c(Cl)cccc1Cl)SC3` (stereo not drawn), the GI50 in assay [1] is 15 µM (inactive); in assay [2], 17.5 µM (inactive); in [4], 17.5 µM (inactive); in assay [5], 15.8 µM (inactive); in assay [6] it was 13.6 µM (inactive); in [7], 13.4 µM (inactive). The GI50 is 16.3 µM (inactive) in [8]; 15.7 µM (inactive) in [9]; 16.1 µM (inactive) in assay [10]; 15.9 µM (inactive) in assay [11]; 14.3 µM (inactive) in [12]; 14.9 µM (inactive) in assay [13]. The GI50 in assay [14] was 13.4 µM (inactive); in assay [15], 20.5 µM (inactive); in assay [16] it was 17.1 µM (inactive); in assay [17] it was 14 µM (inactive); in assay [18], 13.7 µM (inactive); in [19] it was 18 µM (inactive). Also, in assay [20], the GI50 is 13.6 µM (inactive).
